The target in data set [1] is T1, α3β2γ2S GABAA-R (Rattus norvegicus, UniProt P18508+P20236). The data set can be described thus: cell-based. Format: cell-based. The procedure: (§1) cRNAs encoding GABAA-R α1, α2, α3, α5, β2 and γ2S subunits were injected into oocytes from Xenopus laevis. […] GABA (Sigma) was prepared as a 1 M stock solution in ND96. Microelectrodes of 1–3 MΩ when filled with 3 M KCl were used to record from oocytes in a recording chamber continuously perfused with ND-96 buffer solution. During data acquisition, oocytes were clamped at a holding potential of -70 mV. Drugs were applied by perfusion at a rate of approximately 50 μl sec^-1 for 20 s followed by a 120 s wash. […] All experiments were performed at room temperature (22–24°C).
(§2) GABA concentration-response data was obtained for each subunit combination, and the GABA EC10 was determined by nonlinear regression using the logistic equation. This concentration of GABA was used for modulation studies. Peak current measurements were normalized and expressed as a fraction of the peak control current measurements. Control responses to an EC10 concentration of GABA were re-determined after every 2 – 4 applications of modulator + GABA. […] Potentiation data from each oocyte was fitted to the equation Potentiation = Emax × [Drug]/([Drug + EC50) by non-linear regression (Prism, Graph-Pad software). […] Given the lack of consistency of this possible high affinity effect, we have omitted it in fitting our concentration-effect curves. The choice of fitting to a monophasic or biphasic equation had only a small effect on the EC50 for the major component of modulation.
(§3) Rat GABAA-Rs consisting of α1β2γ2S, α2β2γ2S, α3β2γ2S and α5β2γ2S subunits were expressed in Xenopus oocytes. […] Higher concentrations (in parentheses) were excluded from the fit due to a decline in potentiation at higher concentrations.

Data set [2] addresses T2, α1β2γ2S GABAA-R (Rattus norvegicus, UniProt P18508+P62813). In words: cell-based. The procedure: as §1, §2, §3
The target of data set [3] is T3, α5β2γ2S GABAA-R (Rattus norvegicus, UniProt P18508+P19969). In words: cell-based. The procedure:
as §1, §2, §3

Data set [4] deals with T4, α2β2γ2S GABAA-R (Rattus norvegicus, UniProt P18508+P23576). In words: cell-based. The procedure:
as §1, §2, §3

The target of data set [5] is T5, α1β2γ3 GABAA-R (Rattus norvegicus, UniProt P28473+P62813).
T5 construct: expressed in transfected cells; host or cells: HEK293 (CRL 1573), transient transfection
The data set can be described thus: biochemical. The format is binding. Here is the method: (§4) HEK293 cells (CRL 1573, American type Culture Collection, Rockville, MD, USA) were cultured in Dulbecco's modified Eagle's medium (D-MEM, Invitrogen, Carlsbad, CA, USA) supplemented with 10% fetal bovine serum (Invitrogen, Carlsbad, CA, USA) and 1% MEM Non-Essential Amino Acids Solution (Invitrogen, Carlsbad, CA, USA). cDNAs encoding rat GABAA-R subunits were in the following vectors: α1 and α5 in pRc/CMV, α2, α3, γ2S and γ3 in pcDNA3 and β2 in pcDNA1. The cells were transiently transfected (5 μg of each cDNA per 100 mm dish) using FuGene™ (Roche Diagnostics Corporation) at a 3:1 FuGene:DNA ratio. […] Forty-eight hours after transfection, cells were washed with ice-cold PBS, harvested and homogenized. Cell homogenates were centrifuged (100,000 g, 25 min) and washed three times by homogenization in ice-cold PBS buffer followed by centrifugation at 100,000 g for 25 min. The final pellets were stored at -20°C until needed.
(§5) The samples were then diluted with 5 ml of ice-cold buffer and filtered under vacuum through glass-fiber filters (GF/B Whatman). Filters were washed 3 times with 5 ml of buffer and the radioactivity was quantitated by liquid scintillation counting in 5 ml of Ecolite scintillation fluid (ICN). Non-specific binding determined in the presence of 100 μM Ro 15–1788 (Sigma-Aldrich) was subtracted from total binding to calculate specific binding. Data were analyzed by non-linear regression (Prism, Graph-Pad software).

In data set [6] the target is T2, α1β2γ2S GABAA-R. The data set can be described thus: biochemical. Format: binding. Here is the method:
as §4, §5

Data set [7] addresses T3, α5β2γ2S GABAA-R. In words: biochemical. Format: binding. The procedure: as §4, §5
Data set [8] addresses T6, α2β2γ3 GABAA-R (Rattus norvegicus, UniProt P23576+P28473).
T6 construct: expressed in transfected cells; host or cells: HEK293 (CRL 1573), transient transfection
In words: biochemical. The format is binding. Here is the method:
as §4, §5

For data set [9], the target named is T1, α3β2γ2S GABAA-R. The data set can be described thus: biochemical. Format: binding. The procedure: as §4, §5
In data set [10] the target is T7, α5β2γ3 GABAA-R (Rattus norvegicus, UniProt P19969+P28473).
T7 construct: expressed in transfected cells; host or cells: HEK293 (CRL 1573), transient transfection
In words: biochemical. The format is binding. The procedure: as §4, §5

In data set [11] the target is T4, α2β2γ2S GABAA-R. In words: biochemical. The format is binding. Here is the method:
as §4, §5

Data set [12] can be described thus: in vivo. The format is in vivo, rat. The following applies: in vivo; rat, one animal excluded from the plot, 10 min after oral 5 mg/kg ocinaplon, may have regurgitated part of the dose; read-out: blood level. The procedure:
At 1 h, corresponding to the time at which the anticonflict effect of ocinaplon was evaluated, the plasma concentration of DOV 315,090 is ~38% of the concentration of parent compound.
Figure 2 Pharmacokinetics of ocinaplon and DOV 315,090. Blood levels of ocinaplon (●,○) and DOV 315090 (▲,△) were determined at various times after i.v. (●,▲) or oral (○,△) administration of 5 mg/kg ocinaplon to rats. […] This animal may have regurgitated a portion of the dose (of the suspension).

Where [13] appears, read: [3H]Ro15-1788 displacement, n = 3, read-out: IC50.
The mark [14] stands for this setting: mean ± SEM, n = 3, read-out: pIC50 (converted).

The structures appear in SMILES notation. Read-outs that look alike come from different tables or passages of the source.

The text below walks through data of publication PMC2529273, “Pharmacological Properties of DOV 315,090, an ocinaplon metabolite” (BMC Pharmacology, 2008).

T1 sequence (P20236 29-493): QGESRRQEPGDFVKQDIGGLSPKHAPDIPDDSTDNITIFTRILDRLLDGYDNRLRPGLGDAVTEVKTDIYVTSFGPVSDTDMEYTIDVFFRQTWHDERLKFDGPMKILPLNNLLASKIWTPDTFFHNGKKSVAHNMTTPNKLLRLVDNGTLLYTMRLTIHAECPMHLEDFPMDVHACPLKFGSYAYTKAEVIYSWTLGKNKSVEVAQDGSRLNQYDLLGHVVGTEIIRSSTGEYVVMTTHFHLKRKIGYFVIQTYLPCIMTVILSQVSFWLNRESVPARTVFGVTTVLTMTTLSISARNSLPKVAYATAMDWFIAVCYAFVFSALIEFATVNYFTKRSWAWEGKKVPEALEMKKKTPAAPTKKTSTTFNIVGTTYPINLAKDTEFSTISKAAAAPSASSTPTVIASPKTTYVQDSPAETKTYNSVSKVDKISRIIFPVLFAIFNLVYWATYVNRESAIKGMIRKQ
T1 sequence (P63138 25-474 partner limits assumed): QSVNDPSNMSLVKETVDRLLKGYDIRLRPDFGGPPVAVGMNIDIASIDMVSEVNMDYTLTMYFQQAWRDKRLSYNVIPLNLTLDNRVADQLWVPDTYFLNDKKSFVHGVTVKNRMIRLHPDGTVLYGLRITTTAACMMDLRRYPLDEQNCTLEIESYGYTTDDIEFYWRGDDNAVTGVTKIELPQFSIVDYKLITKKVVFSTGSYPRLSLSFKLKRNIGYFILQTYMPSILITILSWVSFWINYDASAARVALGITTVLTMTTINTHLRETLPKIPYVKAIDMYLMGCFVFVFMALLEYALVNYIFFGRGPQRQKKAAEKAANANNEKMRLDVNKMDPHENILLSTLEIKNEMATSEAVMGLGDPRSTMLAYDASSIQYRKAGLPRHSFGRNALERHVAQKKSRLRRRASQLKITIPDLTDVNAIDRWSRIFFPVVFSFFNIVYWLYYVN
T1 sequence (P18508 39-466): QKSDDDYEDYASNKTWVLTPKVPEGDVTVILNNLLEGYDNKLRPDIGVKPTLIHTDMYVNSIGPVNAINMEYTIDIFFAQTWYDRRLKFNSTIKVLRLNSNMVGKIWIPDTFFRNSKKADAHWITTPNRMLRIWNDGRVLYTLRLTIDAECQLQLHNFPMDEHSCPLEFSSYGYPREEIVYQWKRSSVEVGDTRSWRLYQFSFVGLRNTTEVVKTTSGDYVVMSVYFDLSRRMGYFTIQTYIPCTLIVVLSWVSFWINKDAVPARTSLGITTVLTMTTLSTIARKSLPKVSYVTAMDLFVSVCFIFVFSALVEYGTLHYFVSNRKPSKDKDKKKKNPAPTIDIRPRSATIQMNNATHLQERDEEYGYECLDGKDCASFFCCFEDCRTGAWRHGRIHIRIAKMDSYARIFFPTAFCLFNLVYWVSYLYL
T5 sequence (P62813 28-455): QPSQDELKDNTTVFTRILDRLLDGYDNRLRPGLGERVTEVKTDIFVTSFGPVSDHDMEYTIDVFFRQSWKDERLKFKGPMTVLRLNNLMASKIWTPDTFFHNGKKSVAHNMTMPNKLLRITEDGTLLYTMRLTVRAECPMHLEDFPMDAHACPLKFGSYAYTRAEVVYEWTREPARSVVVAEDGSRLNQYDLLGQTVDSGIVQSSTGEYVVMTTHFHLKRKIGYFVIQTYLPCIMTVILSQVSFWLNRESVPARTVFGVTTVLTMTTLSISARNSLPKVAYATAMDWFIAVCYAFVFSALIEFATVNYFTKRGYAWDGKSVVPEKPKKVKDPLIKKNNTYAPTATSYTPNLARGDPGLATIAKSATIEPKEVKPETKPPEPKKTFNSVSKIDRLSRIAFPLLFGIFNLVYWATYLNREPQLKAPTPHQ
T5 sequence (P63138 25-474 partner limits assumed): as the sequence (P63138 25-474 partner limits assumed) above
T5 sequence (P28473 18-467): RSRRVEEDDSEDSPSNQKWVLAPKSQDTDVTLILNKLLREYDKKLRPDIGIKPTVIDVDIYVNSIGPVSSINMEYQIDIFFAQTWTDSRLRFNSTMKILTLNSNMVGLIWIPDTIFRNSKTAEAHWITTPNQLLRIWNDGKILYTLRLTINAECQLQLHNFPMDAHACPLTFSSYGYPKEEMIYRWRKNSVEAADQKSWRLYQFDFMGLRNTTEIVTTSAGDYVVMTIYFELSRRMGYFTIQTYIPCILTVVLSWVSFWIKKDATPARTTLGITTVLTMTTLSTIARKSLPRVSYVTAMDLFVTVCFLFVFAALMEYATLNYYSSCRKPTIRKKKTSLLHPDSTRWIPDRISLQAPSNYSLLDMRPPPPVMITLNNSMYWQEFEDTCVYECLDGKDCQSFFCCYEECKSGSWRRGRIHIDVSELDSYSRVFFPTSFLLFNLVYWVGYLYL
T2 sequence (P62813 28-455): as the sequence (P62813 28-455) above
T2 sequence (P63138 25-474 partner limits assumed): as the sequence (P63138 25-474 partner limits assumed) above
T2 sequence (P18508 39-466): as the sequence (P18508 39-466) above
T3 sequence (P19969 32-464 limits assumed): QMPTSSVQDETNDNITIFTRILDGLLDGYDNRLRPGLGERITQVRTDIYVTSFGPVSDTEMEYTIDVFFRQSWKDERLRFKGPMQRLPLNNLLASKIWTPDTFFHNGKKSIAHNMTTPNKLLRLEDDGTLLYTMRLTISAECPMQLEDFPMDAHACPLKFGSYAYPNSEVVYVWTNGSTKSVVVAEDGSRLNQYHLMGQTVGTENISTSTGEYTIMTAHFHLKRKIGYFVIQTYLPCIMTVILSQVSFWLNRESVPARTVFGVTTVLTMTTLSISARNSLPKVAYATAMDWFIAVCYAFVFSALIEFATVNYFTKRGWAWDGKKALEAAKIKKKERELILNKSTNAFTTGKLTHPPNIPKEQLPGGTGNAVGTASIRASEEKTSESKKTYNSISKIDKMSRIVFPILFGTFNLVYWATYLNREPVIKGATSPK
T3 sequence (P63138 25-474 partner limits assumed): as the sequence (P63138 25-474 partner limits assumed) above
T3 sequence (P18508 39-466): as the sequence (P18508 39-466) above
T7 sequence (P19969 32-464 limits assumed): as the sequence (P19969 32-464 limits assumed) above
T7 sequence (P63138 25-474 partner limits assumed): as the sequence (P63138 25-474 partner limits assumed) above
T7 sequence (P28473 18-467): as the sequence (P28473 18-467) above
T6 sequence (P23576 29-451): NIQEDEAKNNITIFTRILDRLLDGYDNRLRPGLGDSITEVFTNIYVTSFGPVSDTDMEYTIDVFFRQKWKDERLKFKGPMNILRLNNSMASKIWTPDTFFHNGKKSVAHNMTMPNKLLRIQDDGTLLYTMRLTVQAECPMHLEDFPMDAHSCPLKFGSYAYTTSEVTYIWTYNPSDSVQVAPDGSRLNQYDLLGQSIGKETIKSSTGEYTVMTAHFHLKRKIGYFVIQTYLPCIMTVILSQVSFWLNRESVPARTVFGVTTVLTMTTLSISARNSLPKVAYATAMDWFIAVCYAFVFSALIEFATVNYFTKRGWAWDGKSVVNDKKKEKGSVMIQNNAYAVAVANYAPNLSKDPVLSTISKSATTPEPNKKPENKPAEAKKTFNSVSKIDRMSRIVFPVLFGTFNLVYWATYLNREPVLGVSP
T6 sequence (P63138 25-474 partner limits assumed): as the sequence (P63138 25-474 partner limits assumed) above
T6 sequence (P28473 18-467): as the sequence (P28473 18-467) above
T4 sequence (P23576 29-451): as the sequence (P23576 29-451) above
T4 sequence (P63138 25-474 partner limits assumed): as the sequence (P63138 25-474 partner limits assumed) above
T4 sequence (P18508 39-466): as the sequence (P18508 39-466) above

One may read the Emax as the maximal effect, on the per cent scale that the assay sets. Consider `CN1C(=O)CN=C(c2ccccc2)c2cc(Cl)ccc21` [diazepam, reference compound], for which the maximum response (Emax) is 232 ± 31% in data set [1], 144 ± 8% in data set [2], 224 ± 24% in data set [3] and 157 ± 14% in data set [4].

In the case of `O=C(c1ccccn1)c1cnn2c(-c3ccncc3)ccnc12` [ocinaplon, 2-pyridinyl [7-(4-pyridinyl)pyrazolo[1,5-a]pyrimidin-3-yl]methanone], the Emax in data set [1] came to 181 ± 18%; in [2] it was 132 ± 8%; in data set [3], 84 ± 4%; in data set [4], 150 ± 6%. Besides, the EC50 in data set [1] (α3β2γ2S, GABA EC10, mean ± SEM, read-out: pEC50 (converted)) was 6.92 µM; in data set [1] (α3β2γ2S, GABA EC10, number of oocytes in parentheses, read-out: EC50), 8.01 µM; in data set [2] (α1β2γ2S, GABA EC10, mean ± SEM, read-out: pEC50 (converted)), 2.69 µM; in data set [2] (α1β2γ2S, GABA EC10, number of oocytes in parentheses, read-out: EC50) it was 2.93 µM; in data set [3] (α5β2γ2S, GABA EC10, mean ± SEM, read-out: pEC50 (converted)), 3.31 µM; in data set [3] (α5β2γ2S, GABA EC10, number of oocytes in parentheses, read-out: EC50) it was 3.5 µM. Further, the EC50 in data set [4] (α2β2γ2S, GABA EC10, number of oocytes in parentheses, read-out: EC50) was 9.12 µM. Also, the “EC50/DZ EC50” value amounted to 87 in data set [1] (α3β2γ2S, ratio to diazepam EC50); 77 in data set [2] (α1β2γ2S, ratio to diazepam EC50); 139 in [3] (α5β2γ2S, ratio to diazepam EC50); 350 in data set [4] (α2β2γ2S, ratio to diazepam EC50). Besides, the “Emax/DZ Emax” value in data set [1] (α3β2γ2S, ratio to diazepam Emax) amounted to 0.78; in [2] (α1β2γ2S, ratio to diazepam Emax), 0.91; in data set [3] (α5β2γ2S, ratio to diazepam Emax), 0.37; in [4] (α2β2γ2S, ratio to diazepam Emax), 0.95. Moreover, the IC50 was 2.3 µM in data set [5] ([3H]Ro15-1788 displacement, α1β2γ3, n = 3, read-out: IC50); 2.24 µM in [5] (α1β2γ3, mean ± SEM, n = 3, read-out: pIC50 (converted)); 6.3 µM in data set [6] (setting [13]); 9.6 µM in data set [7] (setting [13]); 20 µM in [8] ([3H]Ro15-1788 displacement, α2β2γ3, n = 3, read-out: IC50); 18.2 µM in data set [8] (α2β2γ3, mean ± SEM, n = 3, read-out: pIC50 (converted)). Further, the IC50 in data set [9] (setting [13]) was 7.7 µM; in data set [9] (setting [14]), 7.59 µM; in data set [10] ([3H]Ro15-1788 displacement, α5β2γ3, n = 3, read-out: IC50), 10 µM; in data set [10] (α5β2γ3, mean ± SEM, n = 3, read-out: pIC50 (converted)) it was 9.77 µM; in data set [11] (setting [14]), 24 µM. Further, the “IC50/DZ IC50” value in data set [5] (α1β2γ3, ratio to diazepam IC50) came to 10.5; in [6] (ratio to diazepam IC50), 218; in data set [7] (ratio to diazepam IC50), 355; in [8] (α2β2γ3, ratio to diazepam IC50), 115; in [9] (ratio to diazepam IC50), 158; in data set [10] (α5β2γ3, ratio to diazepam IC50) it was 120. Also, in [11] (ratio to diazepam IC50), the “IC50/DZ IC50” value came out at 759. Moreover, the concentration at 10 min in data set [12] came out at 470 ng/mL.
